Results: US20210290524A1, “TOPICAL TRPV1 ANTAGONISTS AND METHODS AND COMPOSITIONS THEREOF” (CHILDREN'S MEDICAL CENTER CORPORATION, priority 2016, published 2021)
Ends that are not written are not given here.

Legend:
TRPV1 [1] = molecular target: T1, TRPV1 (Mus musculus, UniProt Q704Y3); test: whole cell patch clamp of capsaicin-induced currents in primary murine DRG neurons; assay type: cell-based; design: capsaicin-induced currents in primary murine DRG neurons using whole cell patch clamp; endogenous in cells; host or cells: primary murine dorsal root ganglion (DRG) neurons; details: for block of capsaicin-induced currents by opiorphin family peptides: DRG neurons
TRPV1 [2] = molecular target: T2, TRPV1 (Homo sapiens, UniProt Q8NER1); details: applied topically; cited from earlier work
rTRPV1 = rTRPV1 (Rattus norvegicus, UniProt O35433)
Protocol: To identify if the antagonists were peptides, we purified saliva through a 30 kDa filter to eliminate large proteins and then used reverse-phase HPLC to fractionate the samples (FIG. 1B). […] The resultant 37 1 mL-fractions were dried, reconstituted in HBSS and screened on HEK cells transiently transfected with TRPV1 (FIG. 1C).

P2X3 = P2X3 (Mus musculus, UniProt Q3UR32); details: 30 μM; α,β-methylene-ATP 30 μM
TRPV1 [3] = molecular target: T1, TRPV1; details: 5 nmol/mouse with capsaicin 5 nmol/mouse, paw injection
Description: Injection of capsaicin into a paw produces a short bout of biting and licking.

[4] = tested on: TRPV1 pore turret domain mutants (G603-N626); details: deletion and substitution mutations
TRPV1 [5] = molecular target: T1, TRPV1; details: Hot-plate test 52±0.1° C.
TRPV1 [6] = details: pH 5.6; 1 μM
TRPV1 [7] = molecular target: T1, TRPV1
TRPV1 [8] = molecular target: T1, TRPV1; test: capsaicin-induced calcium flux in primary murine DRG neurons (plate-based/FLIPR); assay type: cell-based; design: capsaicin-induced currents in primary murine DRG neurons using whole cell patch clamp; endogenous in cells; host or cells: primary murine dorsal root ganglion (DRG) neurons; details: DRG neuron, read-out: inhibition of capsaicin-induced calcium flux
Description: To test the possibility that saliva may inhibit the TRPV1 heat pain receptor^12-14 in nociceptors, we collected samples of whole saliva from four human donors and ran a screen on primary murine dorsal root ganglion (DRG) neurons.

TRPV1 [9] = molecular target: T2, TRPV1; details: HEK293 cells transiently expressing hTRPV1
TRPA1 = TRPA1 (Mus musculus, UniProt Q8BLA8); details: 30 μM; AITC 50 μM
TRPM8 = TRPM8 (Mus musculus, UniProt Q8R4D5); details: 30 μM; Menthol 100 μM
TRPV4 = TRPV4 (Mus musculus, UniProt Q9EPK8); details: 30 μM; GSK 1016790A 1 μM
rat TRPV1 = rat TRPV1 (Rattus norvegicus, UniProt O35433); details: 1 μM
TRPV1 [10] = molecular target: T1, TRPV1; details: Von frey filaments
[11] = tested on: TrpV1 expressing afferents; test: in vivo calcium imaging of injury-activated trigeminal ganglion neurons, topical capsaicin; design: species or system mouse; details: topical 5 mM capsaicin after incision injury, 32 of 38 neurons
Description: FIG. 9A is a micrograph of calcium imaging field in trigeminal ganglion of VGlut2^Cre; Rosa26^LSL-GCαMP6f mouse, with neurons active after injury highlighted. Scale bar is 100 μm. […] (The VGlut2^Cre; Rosa26^LSL-GCαMP6f mouse is generated by crossing a VGlut2-Cre mice with a […] mice, therefore the resulting double transgenic VGlut2^Cre; Rosa26^LSL-GCαMP6f mice express tD-Tomato (a red fluorescence protein) in all the sensory neurons but not in any other type of neuron. This allows for labeling and imaging of only sensory neurons in vivo.)
The inventors assessed effect of topical TRPV1 agonist capsaicin applied after acute injury and wound in a mouse model in vivo. […] Capsaicin, a TRPV1 agonist, was later applied to the same region to determine that an unexpected high number of neurons, […] of neurons activated by injury were also TRPV1-positive.

T1 sequence (Q704Y3 whole entry): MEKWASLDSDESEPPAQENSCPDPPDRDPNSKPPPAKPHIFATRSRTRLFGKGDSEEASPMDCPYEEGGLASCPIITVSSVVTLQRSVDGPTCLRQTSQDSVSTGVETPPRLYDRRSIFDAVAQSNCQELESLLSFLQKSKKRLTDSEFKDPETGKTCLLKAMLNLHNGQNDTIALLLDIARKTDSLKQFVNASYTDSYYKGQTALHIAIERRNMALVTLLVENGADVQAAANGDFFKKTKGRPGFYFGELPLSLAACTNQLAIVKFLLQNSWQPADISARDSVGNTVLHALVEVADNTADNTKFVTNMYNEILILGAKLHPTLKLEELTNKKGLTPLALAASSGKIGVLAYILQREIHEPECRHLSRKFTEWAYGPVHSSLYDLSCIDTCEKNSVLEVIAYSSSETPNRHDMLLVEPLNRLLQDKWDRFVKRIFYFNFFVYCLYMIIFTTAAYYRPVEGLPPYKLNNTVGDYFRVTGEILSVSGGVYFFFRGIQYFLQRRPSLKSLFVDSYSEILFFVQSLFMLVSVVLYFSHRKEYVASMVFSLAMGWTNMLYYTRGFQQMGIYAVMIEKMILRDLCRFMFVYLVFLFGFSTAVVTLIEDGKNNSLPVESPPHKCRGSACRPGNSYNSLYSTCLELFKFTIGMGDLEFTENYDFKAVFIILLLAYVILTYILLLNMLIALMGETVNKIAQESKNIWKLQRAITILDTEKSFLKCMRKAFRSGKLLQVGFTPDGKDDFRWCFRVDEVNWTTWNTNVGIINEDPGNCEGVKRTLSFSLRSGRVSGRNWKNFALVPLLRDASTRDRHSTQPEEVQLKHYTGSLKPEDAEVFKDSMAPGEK
Chain of rTRPV1 (O35433 whole entry): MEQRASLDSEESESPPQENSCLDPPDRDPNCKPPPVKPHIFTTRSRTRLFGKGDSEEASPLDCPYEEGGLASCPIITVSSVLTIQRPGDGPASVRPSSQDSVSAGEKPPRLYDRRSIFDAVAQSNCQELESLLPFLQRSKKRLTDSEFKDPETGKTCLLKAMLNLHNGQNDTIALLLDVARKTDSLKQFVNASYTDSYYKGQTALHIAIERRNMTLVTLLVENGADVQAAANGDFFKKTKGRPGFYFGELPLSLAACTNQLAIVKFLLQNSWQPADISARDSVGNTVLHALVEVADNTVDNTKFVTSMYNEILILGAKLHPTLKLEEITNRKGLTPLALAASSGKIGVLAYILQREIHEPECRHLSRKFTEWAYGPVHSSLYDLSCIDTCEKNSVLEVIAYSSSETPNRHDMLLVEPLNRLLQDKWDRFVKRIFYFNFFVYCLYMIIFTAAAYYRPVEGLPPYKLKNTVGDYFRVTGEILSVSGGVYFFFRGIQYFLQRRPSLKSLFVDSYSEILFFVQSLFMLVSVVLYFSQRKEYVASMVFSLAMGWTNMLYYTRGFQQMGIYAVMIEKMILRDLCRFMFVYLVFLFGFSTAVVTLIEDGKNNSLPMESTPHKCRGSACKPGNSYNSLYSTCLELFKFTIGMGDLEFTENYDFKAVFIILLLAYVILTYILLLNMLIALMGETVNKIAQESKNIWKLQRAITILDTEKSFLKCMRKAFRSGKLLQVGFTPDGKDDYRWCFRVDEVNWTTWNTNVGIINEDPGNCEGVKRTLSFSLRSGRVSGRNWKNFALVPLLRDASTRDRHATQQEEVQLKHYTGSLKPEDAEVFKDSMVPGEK
Chain of rat TRPV1 (O35433 whole entry): as above
T2 sequence (Q8NER1 whole entry): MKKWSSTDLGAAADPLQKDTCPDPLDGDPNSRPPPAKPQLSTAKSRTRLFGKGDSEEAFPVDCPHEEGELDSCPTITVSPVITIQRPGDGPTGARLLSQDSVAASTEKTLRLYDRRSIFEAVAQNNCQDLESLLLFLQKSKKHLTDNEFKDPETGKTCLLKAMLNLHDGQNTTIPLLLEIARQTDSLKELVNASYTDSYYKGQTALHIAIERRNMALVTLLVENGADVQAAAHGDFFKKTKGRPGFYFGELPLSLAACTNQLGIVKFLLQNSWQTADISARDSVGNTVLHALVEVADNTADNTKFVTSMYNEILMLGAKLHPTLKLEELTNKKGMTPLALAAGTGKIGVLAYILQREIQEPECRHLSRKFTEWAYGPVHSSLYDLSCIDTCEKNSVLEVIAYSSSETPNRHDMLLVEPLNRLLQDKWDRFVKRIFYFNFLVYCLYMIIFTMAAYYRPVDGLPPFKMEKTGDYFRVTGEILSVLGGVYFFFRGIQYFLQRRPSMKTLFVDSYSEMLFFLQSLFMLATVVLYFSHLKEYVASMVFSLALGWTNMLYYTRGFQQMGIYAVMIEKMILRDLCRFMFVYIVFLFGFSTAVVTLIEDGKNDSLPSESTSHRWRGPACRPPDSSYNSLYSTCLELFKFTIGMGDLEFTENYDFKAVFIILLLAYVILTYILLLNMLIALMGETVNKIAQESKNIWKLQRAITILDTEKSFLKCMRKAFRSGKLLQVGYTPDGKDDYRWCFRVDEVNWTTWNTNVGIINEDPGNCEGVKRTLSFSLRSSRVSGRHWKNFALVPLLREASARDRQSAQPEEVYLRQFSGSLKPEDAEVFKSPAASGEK
Chain of TRPA1 (Q8BLA8 whole entry): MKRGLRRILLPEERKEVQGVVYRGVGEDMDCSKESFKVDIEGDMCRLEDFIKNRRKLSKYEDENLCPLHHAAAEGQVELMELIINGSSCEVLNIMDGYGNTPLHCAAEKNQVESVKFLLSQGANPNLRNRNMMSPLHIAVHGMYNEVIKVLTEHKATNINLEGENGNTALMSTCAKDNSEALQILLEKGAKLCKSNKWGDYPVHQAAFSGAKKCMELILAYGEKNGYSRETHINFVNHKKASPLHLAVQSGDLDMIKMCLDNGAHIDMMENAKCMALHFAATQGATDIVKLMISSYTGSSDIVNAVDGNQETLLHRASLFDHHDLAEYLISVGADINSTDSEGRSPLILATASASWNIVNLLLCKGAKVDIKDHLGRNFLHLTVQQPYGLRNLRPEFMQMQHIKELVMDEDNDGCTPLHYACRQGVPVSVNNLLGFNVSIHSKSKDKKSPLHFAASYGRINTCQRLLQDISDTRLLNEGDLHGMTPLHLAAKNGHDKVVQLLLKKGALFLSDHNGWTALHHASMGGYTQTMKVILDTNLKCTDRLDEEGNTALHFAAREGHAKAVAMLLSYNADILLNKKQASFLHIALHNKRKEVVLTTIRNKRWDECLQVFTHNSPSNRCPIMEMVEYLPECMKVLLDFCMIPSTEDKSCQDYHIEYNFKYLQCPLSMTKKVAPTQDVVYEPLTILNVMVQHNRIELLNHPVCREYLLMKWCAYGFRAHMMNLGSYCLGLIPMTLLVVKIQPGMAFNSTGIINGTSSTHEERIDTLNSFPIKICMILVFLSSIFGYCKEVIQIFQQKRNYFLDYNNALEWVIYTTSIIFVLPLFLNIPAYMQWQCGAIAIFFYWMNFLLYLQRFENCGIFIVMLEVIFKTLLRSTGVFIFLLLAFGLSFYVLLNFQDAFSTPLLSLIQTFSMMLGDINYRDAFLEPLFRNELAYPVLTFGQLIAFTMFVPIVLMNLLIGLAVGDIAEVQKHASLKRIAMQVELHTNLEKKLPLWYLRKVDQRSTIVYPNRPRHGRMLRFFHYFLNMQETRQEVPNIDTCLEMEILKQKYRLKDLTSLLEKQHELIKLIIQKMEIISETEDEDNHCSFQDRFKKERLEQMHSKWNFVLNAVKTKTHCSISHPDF
Chain of P2X3 (Q3UR32 whole entry): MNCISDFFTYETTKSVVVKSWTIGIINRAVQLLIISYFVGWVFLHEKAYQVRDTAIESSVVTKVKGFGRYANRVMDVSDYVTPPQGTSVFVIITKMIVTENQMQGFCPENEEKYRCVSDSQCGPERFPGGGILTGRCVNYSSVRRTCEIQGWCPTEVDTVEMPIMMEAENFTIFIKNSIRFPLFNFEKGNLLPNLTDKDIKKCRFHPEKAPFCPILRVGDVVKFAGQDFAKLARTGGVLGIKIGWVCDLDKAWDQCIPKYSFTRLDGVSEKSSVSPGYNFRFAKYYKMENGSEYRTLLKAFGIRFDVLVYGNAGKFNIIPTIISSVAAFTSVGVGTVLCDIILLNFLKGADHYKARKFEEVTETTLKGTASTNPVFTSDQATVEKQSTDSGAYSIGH
Chain of TRPV4 (Q9EPK8 whole entry): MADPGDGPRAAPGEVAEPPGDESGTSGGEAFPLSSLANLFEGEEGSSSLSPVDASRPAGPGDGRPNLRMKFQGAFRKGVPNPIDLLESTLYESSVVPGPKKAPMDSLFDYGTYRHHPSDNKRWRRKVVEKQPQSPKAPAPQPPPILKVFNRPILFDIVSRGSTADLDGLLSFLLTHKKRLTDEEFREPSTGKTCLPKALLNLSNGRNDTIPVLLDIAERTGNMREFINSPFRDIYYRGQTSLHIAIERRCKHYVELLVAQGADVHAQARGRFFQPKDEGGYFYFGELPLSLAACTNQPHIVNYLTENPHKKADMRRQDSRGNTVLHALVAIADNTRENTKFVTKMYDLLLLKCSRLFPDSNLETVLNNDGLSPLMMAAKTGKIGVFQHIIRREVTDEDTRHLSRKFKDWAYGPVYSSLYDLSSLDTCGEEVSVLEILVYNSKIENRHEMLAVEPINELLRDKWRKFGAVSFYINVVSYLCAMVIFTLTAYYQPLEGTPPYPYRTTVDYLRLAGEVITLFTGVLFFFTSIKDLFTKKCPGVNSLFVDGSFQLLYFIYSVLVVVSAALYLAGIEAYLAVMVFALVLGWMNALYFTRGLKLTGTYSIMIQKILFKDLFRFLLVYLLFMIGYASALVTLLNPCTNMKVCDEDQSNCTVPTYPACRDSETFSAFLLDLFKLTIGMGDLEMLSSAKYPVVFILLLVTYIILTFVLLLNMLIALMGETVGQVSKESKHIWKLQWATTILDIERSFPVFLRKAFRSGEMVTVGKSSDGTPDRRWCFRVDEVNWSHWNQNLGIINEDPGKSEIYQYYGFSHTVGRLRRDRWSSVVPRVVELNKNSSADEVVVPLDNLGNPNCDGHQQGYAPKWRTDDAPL

SMR3 peptide: SMR3 peptide (QRGPR; SEQ ID NO: 5) of the opiorphin family [reference compound]
block of capsaicin-induced currents by opiorphin family peptides (TRPV1 [1]): no such activity

O=C(Nc1ccccc1Br)N[C@@H]1CCN(c2ccc(C(F)(F)F)cn2)C1 [SB705498]
symptomatic benefit for induced itch (TRPV1 [2]): not to be of symptomatic benefit

QRFSR [opiorphin]
peak efficacy of capsaicin reduced to (rTRPV1; 100 nM opiorphin): ~50% | mode of inhibition versus capsaicin (rTRPV1; no rightward-shift of capsaicin curve): non-competitively | inhibition of calcium flux by P2X3 agonist (P2X3): did not inhibit | block of capsaicin-induced currents (TRPV1 [1]): effectively eliminated | effect on TRPV1 currents, external application (TRPV1 [1]): substantially reduced | effect on TRPV1 currents, internal application (TRPV1 [1]): no change in TRPV1 currents was detected | inhibition of capsaicin currents when applied into capsaicin application (TRPV1 [1]): inhibited capsaicin currents | ability to block capsaicin-evoked currents after pertussis toxin (TRPV1 [1]; PTX 1 μg/mL, 3 hours): remained intact | capsaicin-induced licking response (TRPV1 [3]): significantly reduced | inhibitory activity on pore turret mutants [4]: loss of opiorphin inhibitory activity | thermal hypersensitivity after capsaicin injection (TRPV1 [5]): reduced | inhibition of proton-induced currents (TRPV1 [6]): strongly inhibited | licking/biting response to superficial paw incision (TRPV1 [7]; topical 10 μM, 5 s, C57 mice, vs topical saline): eliminated | inhibition at 1 µM (TRPV1 [8]): ~50% | inhibition of capsaicin-induced currents (TRPV1 [9]): inhibited capsaicin-induced currents | inhibition of calcium flux by TRPA1 agonist (TRPA1): did not inhibit | inhibition of calcium flux by TRPM8 agonist (TRPM8): did not inhibit | inhibition of calcium flux by TRPV4 agonist (TRPV4): did not inhibit | inhibition of resiniferatoxin action (rat TRPV1; RTX 100 nM, HEK293 rTRPV1): inhibited the action | antagonism of capsaicin-evoked currents across voltages (rat TRPV1; capsaicin 1 μM, HEK293 rat TRPV1): antagonized capsaicin-evoked currents at all voltages tested | mechanical hypersensitivity after capsaicin injection (TRPV1 [10]): reduced

COc1cc(CNC(=O)CCCC/C=C/C(C)C)ccc1O [capsaicin]
injury-activated neurons responding to capsaicin [11]: 84% | injury-activated neurons responding to capsaicin ([11]; listed as Capsaicin): ~86%

CC(C)(C)c1ccc(/C=C/C(=O)Nc2ccc3c(c2)OCCO3)cc1 [AMG 9810, (E)-3-(4-t-butylphenyl)-N-(2,3-dihydrobenzo[b][1,4]dioxin-6-yl)acrylamide, reference compound]
acute licking of superficial paw incision wound (TRPV1 [7]; topical 30 μM, mice): reduced

sialorphin: rat peptide sialorphin (QHNPR, SEQ ID NO: 4) of the opiorphin family (listed as Rattus norvegicus) [reference compound]
block of capsaicin-induced currents by opiorphin family peptides (TRPV1 [1]): blocked capsaicin-induced currents
